Source: patent US8178530B2, “Imidazolopyrazine compounds useful for the treatment of degenerative and inflammatory diseases” (Janssen Pharmaceutica NV, priority 2006, dated 2012)

Key:
MAPKAPK5 = biological target: T1, MAPKAPK5 (Homo sapiens, UniProt Q8IW41); assay: MAPKAP-K5 assay (FlashPlate, 33P-ATP); type: biochemical; conditions: 0.6 μM ATP, 30 minutes at room temperature
T1 construct: 1 mU MAPKAP-K5
T1 sequence (Q8IW41 1-473): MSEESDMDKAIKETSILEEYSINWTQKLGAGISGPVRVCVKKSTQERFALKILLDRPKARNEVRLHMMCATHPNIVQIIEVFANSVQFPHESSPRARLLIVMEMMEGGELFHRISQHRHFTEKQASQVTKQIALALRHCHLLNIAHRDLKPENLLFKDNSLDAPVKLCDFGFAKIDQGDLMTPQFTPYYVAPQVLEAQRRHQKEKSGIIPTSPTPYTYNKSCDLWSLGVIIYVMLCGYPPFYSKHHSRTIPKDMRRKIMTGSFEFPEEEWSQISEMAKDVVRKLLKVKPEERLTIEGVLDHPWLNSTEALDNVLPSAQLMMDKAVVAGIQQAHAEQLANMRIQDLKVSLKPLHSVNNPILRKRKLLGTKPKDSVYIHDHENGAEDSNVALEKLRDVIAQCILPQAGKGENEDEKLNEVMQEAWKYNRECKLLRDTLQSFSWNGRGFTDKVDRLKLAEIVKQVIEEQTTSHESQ
Method: 3 μM MAPKAP-K5 peptide substrate

MMP1 expression by SFs = assay: 'MMP assay': MMP1 expression by 'complex trigger' activated synovial fibroblasts (MMP1 ELISA); type: cell-based, human; conditions: Homo sapiens, Fibroblast, RASFs, 48 hrs
Method: A 384-well format ELISA for measurement of MMP1 is developed. Various primary antibodies are tested, as well as various ELISA protocols. The following protocol is developed and validated to measure MMP1 levels in SF supernatant in 384 well plates: white Lumitrac 600 384 well plates (Greiner) are coated with 2 μg/mL anti-MMP1 antibody MAB1346 (Chemicon). The antibody is diluted in buffer 40 (1.21 g Tris base (Sigma), 0.58 g NaCl (Calbiochem) and 5 ml 10% NaN3 (Sigma) in 1 L milliQ water and adjusted to pH 8.5). After overnight incubation at 4° C., plates are washed with PBS (80 g NaCl, 2 g KCl (Sigma), 11.5 g Na2HPO4.7H2O and 2 g KH2PO4 in 10 L milliQ; pH 7.4) and blocked with 100 μL/well Casein buffer (2% Casein (VWR International) in PBS). Next day, casein buffer is removed from ELISA plates and replaced by 50 μL/well EC buffer (4 g casein, 2.13 g Na2HPO4 (Sigma), 2 g bovine albumin (Sigma), 0.69 g NaH2PO4.H2O (Sigma), 0.5 g CHAPS (Roche), 23.3 g NaCl, 4 mL 0.5 M EDTA pH 8 (Invitrogen), 5 mL 10% NaN3 in 1 L milliQ and adjusted to pH 7.0). 0.25 mM DTT (Sigma) is added to the thawed samples plates. After removal of the EC buffer, 20 μL of sample is transferred to the ELISA plates. After overnight incubation at 4° C. plates are washed twice with PBS and once with PBST (PBS with 0.05% Tween-20 (Sigma)) and incubated with 35 μL/well biotinylated anti-MMP1 antibody solution (R&D). This secondary antibody is diluted in buffer C (0.82 g NaH2PO4.H2O, 4.82 g Na2HPO4, 46.6 g NaCl, 20 g bovine albumin and 4 mL 0.5M EDTA pH 8 in 2 L milliQ and adjusted to pH 7.0) at a concentration of 5 μg/mL. After 2 h of incubation at RT, plates are washed as described above and incubated with 50 μL/well streptavidin-HRP conjugate (Biosource). Streptavidin-HRP conjugate is diluted in buffer C at a concentration of 0.25 μg/mL. After 45 min, plates are washed as described above and incubated for 5 min with 50 μL/well BM Chem ELISA Substrate (Roche). Readout is performed on the Luminoscan Ascent Luminometer (Labsystems) with an integration time of 200 msec or with an Envision reader (Perkin Elmer).
The increase of MMP1 expression by SFs upon treatment with cytokines relevant in the field of RA (TNF-α, IL1β and OSM) or a combination thereof is shown in FIG. 2 as white bars. For this experiment, SFs are seeded in 96 well plates, 3,000 cells/well. 24 h later, the medium is changed to M199 medium supplemented with 1% FBS. One day after the medium change, cytokines or combinations thereof are added to the cultures, each cytokine being added to a final concentration of 25 ng/mL. 72 h after cytokine addition, the supernatant is collected and processed in the MMP1 ELISA as described in the protocol given above. In parallel with this experiment, SFs are triggered, using the same protocol, with the supernatant of THP1 cells (2-fold diluted in M199+1% FBS) treated with the same cytokines or combinations of cytokines for 48 h in M199 medium+1% FBS. The induction of the MMP1 expression by SFs triggered with the supernatants of TNF-α-treated THP1 cells is stronger (>4.5 fold induction) as compared to the SFs triggered with recombinant TNF-α alone (3-fold induction) and almost equals the 5-fold induction obtained by a mixture of 3 purified cytokines (TNF-α, IL1βb, OSM). […] As the role of TNF-α in the RA pathogenesis is validated (TNF-α-blockers such as Infliximab and Etanercept show some efficacy in the treatment of RA patients) and the THP-1 cells are representative for monocytes/macrophages present in the joint of RA patients, the TNF-α-based trigger mixture prepared by contacting THP-1 cells with TNF-α will contain factors present in the joints of RA patients and subsequently is relevant to RA. This TNF-α-based complex trigger, further referred to as the ‘complex trigger’, will further be used as basis for the ‘MMP assay’.
Dexamethasone is shown to dose-dependently reduce amounts of MMP1 produced by complex trigger activated SFs. […]

| SMILES | IC50 (MAPKAPK5) | EC50 (MMP1 expression by SFs) |
| --- | --- | --- |
| NC(=O)c1ccc(-c2cnc(Nc3ccc(N)cc3)c3nccn23)cc1 [Compound 18] | > 1000 nM | > 1000 nM |
| NS(=O)(=O)c1ccc(-c2cnc(Nc3ccc(N4CCOCC4)cc3)c3nccn23)cc1 [Compound 29] | > 1000 nM | > 1000 nM |
| NC(=O)c1nc(-c2cnc(Nc3ccc(N4CCOCC4)cc3)c3nccn23)cs1 [Compound 164] | > 1000 nM | > 1000 nM |
| CC(C)Oc1ccc(Nc2ncc(-c3ccc(C(N)=O)c(F)c3)n3ccnc23)cc1 [Compound 148] | > 1000 nM | 501 to 1000 nM |
| CCN(CC)CCNC(=O)c1ccc(Nc2ncc(-c3cnc(O)nc3O)n3ccnc23)cc1 [Compound 80] | > 1000 nM | > 1000 nM |
| NC(=O)CN1CCC(c2ccc(Nc3ncc(-c4ccc5c(c4)CNC5=O)n4ccnc34)cc2)CC1 [Compound 226, 2-(4-{4-[5-(1-Oxo-2,3-dihydro-1H-isoindol-5-yl)-imidazo[1,2-a]pyrazin-8-ylamino]-phenyl}piperidin-1-yl)acetamide] | 101 to 500 nM | > 1000 nM |
| COc1cccc(Nc2ncc(-c3cn[nH]c3)n3ccnc23)c1 [Compound 16] | > 1000 nM | > 1000 nM |
| Cc1cnc2c(Nc3ccc(N4CCOCC4)cc3)ncc(-c3cc[nH]c(=O)c3)n12 [Compound 135] | > 1000 nM | > 1000 nM |
| Nc1cc(C(=O)O)ccc1-c1cnc(Nc2ccc(N3CCOCC3)cc2)c2nccn12 [Compound 40] | > 1000 nM | > 1000 nM |
| CCN(CC)CCNC(=O)c1ccc(Nc2ncc(-c3cn[nH]c3)n3ccnc23)cn1 [Compound 103, 5-[5-(1H-Pyrazol-4-yl)-imidazo[1,2-a]pyrazin-8-ylamino]-pyridine-2-carboxylic acid (2-diethylamino-ethyl)-amide] | 501 to 1000 nM | > 1000 nM |
| c1cncc(Nc2ncc(-c3cn[nH]c3)n3ccnc23)c1 [Compound 42] | > 1000 nM | > 1000 nM |
| COC(=O)c1cccc(Nc2ncc(-c3cn[nH]c3)n3ccnc23)c1 [Compound 20] | > 1000 nM | > 1000 nM |
| CC(C)N1CCN(c2ccc(Nc3ncc(-c4cn[nH]c4)n4ccnc34)cn2)CC1 [Compound 201, [6-(4-Isopropylpiperazin-1-yl)pyridin-3-yl]-[5-(1H-pyrazol-4-yl)-imidazo[1,2-a]pyrazin-8-yl]amine] | 501 to 1000 nM | > 1000 nM |
| CCN(CC)CCNC(=O)c1ccc(Nc2ncc(-c3ccsc3)n3ccnc23)cc1 [Compound 73] | > 1000 nM | > 1000 nM |
| NC(=O)c1ccc(-c2cnc(Nc3cccc(N4CCOCC4)c3)c3nccn23)cc1 [Compound 172] | > 1000 nM | > 1000 nM |
| CC(=O)Nc1ccc(Nc2ncc(-c3cn[nH]c3)n3ccnc23)cc1 [Compound 31] | 501 to 1000 nM | > 1000 nM |

| SMILES | IC50 (MAPKAPK5) | EC50 (MMP1 expression by SFs) |
| --- | --- | --- |
| Cc1nc(-c2cnc(Nc3ccc(N4CCOCC4)cc3)c3nccn23)n[nH]1 [Compound 100] | > 1000 nM | > 1000 nM |
| Cc1cc(-c2cnc(Nc3ccc(N4CCOCC4)cc3)c3nccn23)cc(=O)[nH]1 [Compound 174, 6-Methyl-4-[8-(4-morpholin-4-ylphenylamino)-imidazo[1,2-a]pyrazin-5-yl]-1H-pyridin-2-one] | > 1000 nM | 101 to 500 nM |
| CCN(CC)CCNC(=O)c1ccc(Nc2ncc(-c3cccnc3)n3ccnc23)cc1 [Compound 72] | > 1000 nM | > 1000 nM |
| CCN(CC)CCNC(=O)c1ccc(Nc2ncc(-c3ccc(O)cc3C(F)(F)F)n3ccnc23)cc1 [Compound 75] | > 1000 nM | > 1000 nM |
| CN1CCN(c2ccc(Nc3ncc(-c4ccc(C(=O)O)cc4)n4ccnc34)cc2)CC1 [Compound 43] | > 1000 nM | > 1000 nM |
| CN1CCN(c2ccc(Nc3ncc(-c4ccc(=O)[nH]c4)n4ccnc34)cc2)CC1 [Compound 109] | > 1000 nM | > 1000 nM |
| CCN(CC)CCNC(=O)c1ccc(Nc2ncc(-c3cn[nH]n3)n3ccnc23)cc1 [Compound 84] | 501 to 1000 nM | > 1000 nM |
| NC(=O)c1ccc(-c2cnc(Nc3ccc4[nH]ccc4c3)c3nccn23)cc1 [Compound 28] | > 1000 nM | 501 to 1000 nM |
| CN1CCN(S(=O)(=O)c2ccc(Nc3ncc(-c4cn[nH]c4)n4ccnc34)cc2)CC1 [Compound 70] | > 1000 nM | > 1000 nM |
| CC(C)N1CCN(c2ccc(Nc3ncc(-c4cc5c(o4)CNC5=O)n4ccnc34)cc2)CC1 [Compound 222] | 101 to 500 nM | 501 to 1000 nM |
| NC(=O)c1ccc(-c2cnc(Nc3ccc(-n4cncn4)cc3)c3nccn23)cc1 [Compound 134] | > 1000 nM | 101 to 500 nM |
| CCN(CC)CCNC(=O)c1ccc(Nc2ncc(-c3ccc(S(C)(=O)=O)cc3)n3ccnc23)cc1 [Compound 79] | > 1000 nM | > 1000 nM |
| NC(=O)c1cc(Nc2ncc(-c3cc(F)c(C(N)=O)c(F)c3)n3ccnc23)ccc1N1CCOCC1 [Compound 175, 4-[8-(3-Carbamoyl-4-morpholin-4-yl-phenylamino)-imidazo[1,2-a]pyrazin-5-yl]-2,6-difluoro-benzamide] | 101 to 500 nM | 501 to 1000 nM |
| CC(C)N1CCC(c2ccc(Nc3ncc(-c4cn[nH]c4)n4ccnc34)cc2)CC1 [Compound 202, [4-(1-Isopropylpiperidin-4-yl)phenyl]-[5-(1H-pyrazol-4-yl)imidazo[1,2-a]pyrazin-8-yl]amine] | 101 to 500 nM | > 1000 nM |
| c1cn2c(-c3nn[nH]n3)cnc(Nc3ccc(N4CCOCC4)cc3)c2n1 [Compound 62] | > 1000 nM | > 1000 nM |
